Here are results for 4 compounds from patent publication US11376232B2, “Vidofludimus for use in the treatment or prevention of viral diseases” (Immunic AG, priority 2020, dated 2022).

Molecules are shown by their SMILES. Where “and” joins values, the source holds several entries; their conditions need not be identical. Identical values can stand only once. Counter-ions that a name gives are not always drawn. Like-named read-outs stand apart in the source and are kept apart here. Some results are limits rather than exact numbers.

One may read the IC50 as the concentration needed to halve the response being measured. In general, EC90 refers to the concentration at which the effect reaches the 90% level.

In data set [1] the test system is Human T-cells. Nature of the data set: Proliferation assay of human T-cells (PHA-stimulated PBMCs, BrdU). Type of data set: cell-based. As to conditions: T-cell, PHA 20 μg/ml, 48 hours, BrdU ELISA. On the procedure: Human peripheral blood mononuclear cells (PBMCs) were obtained from healthy volunteers and transferred to RPMI1640 cell culture medium containing 10% dialyzed fetal calf serum. 80.000 cells per well were pipetted into a 96-well plate and phytohemagglutinin (PHA) was added in phosphate buffered saline to a final concentration of 20 μg/ml to stimulate T-cell proliferation. Vidofludimus was added in dimethyl sulfoxide (DMSO, final concentration: 0.1 vol %) to final concentrations ranging from 20 nM to 50 μM. After incubation for 48 hours, cell proliferation was quantified using the “cell proliferation ELISA BrdU” (Roche) according to the manufacturer's instructions. Half maximal inhibition (IC50) was calculated using a 4-parameter sigmoidal curve fit.
In general terms: Dividing cells build labelled thymidine or BrdU into new DNA.

For data set [2], the target named is EGFR (Homo sapiens, UniProt P00533). Nature of the data set: Off-target activity on EGFR. As to conditions: in contrast to leflunomide and teriflunomide.
Sequence of EGFR (P00533 25-1210, species assumed): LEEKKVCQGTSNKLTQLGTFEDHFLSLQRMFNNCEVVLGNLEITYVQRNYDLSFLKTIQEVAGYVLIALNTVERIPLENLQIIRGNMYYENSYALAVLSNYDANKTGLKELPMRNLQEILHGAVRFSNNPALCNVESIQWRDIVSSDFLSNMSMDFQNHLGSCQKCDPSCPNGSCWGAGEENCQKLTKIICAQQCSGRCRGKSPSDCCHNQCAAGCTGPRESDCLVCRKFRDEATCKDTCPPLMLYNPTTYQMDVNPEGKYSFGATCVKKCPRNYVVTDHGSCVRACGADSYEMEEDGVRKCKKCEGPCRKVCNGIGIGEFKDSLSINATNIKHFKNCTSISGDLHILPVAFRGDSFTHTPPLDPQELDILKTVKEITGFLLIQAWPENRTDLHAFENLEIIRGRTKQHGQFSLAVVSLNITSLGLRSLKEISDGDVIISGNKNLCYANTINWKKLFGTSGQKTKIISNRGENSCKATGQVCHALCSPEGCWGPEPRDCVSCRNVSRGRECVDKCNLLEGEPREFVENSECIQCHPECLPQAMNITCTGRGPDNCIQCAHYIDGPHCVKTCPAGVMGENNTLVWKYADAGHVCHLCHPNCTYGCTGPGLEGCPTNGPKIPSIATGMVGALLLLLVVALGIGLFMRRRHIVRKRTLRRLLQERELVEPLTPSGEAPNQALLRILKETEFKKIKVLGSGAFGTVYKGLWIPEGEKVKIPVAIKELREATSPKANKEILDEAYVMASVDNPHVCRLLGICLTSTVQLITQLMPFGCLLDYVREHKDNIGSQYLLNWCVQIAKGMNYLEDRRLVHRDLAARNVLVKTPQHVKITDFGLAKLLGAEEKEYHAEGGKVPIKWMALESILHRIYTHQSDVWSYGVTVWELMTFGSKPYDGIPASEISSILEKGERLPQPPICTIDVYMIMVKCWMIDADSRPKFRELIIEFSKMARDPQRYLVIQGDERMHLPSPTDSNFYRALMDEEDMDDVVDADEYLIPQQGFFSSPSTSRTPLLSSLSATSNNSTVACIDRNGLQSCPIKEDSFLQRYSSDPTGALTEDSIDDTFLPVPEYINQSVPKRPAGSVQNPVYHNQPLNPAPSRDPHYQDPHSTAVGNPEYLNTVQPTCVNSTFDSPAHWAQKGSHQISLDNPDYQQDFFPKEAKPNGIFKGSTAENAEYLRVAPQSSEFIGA
For data set [3], the system named is bone marrow. Description: Animal studies, effects on bone marrow. Type of data set: in vivo. As to conditions: animals treated with large doses.
Data set [4] concerns the target T1, Auroroa-A kinases (Homo sapiens, UniProt O14965).
T1 sequence (O14965 1-403): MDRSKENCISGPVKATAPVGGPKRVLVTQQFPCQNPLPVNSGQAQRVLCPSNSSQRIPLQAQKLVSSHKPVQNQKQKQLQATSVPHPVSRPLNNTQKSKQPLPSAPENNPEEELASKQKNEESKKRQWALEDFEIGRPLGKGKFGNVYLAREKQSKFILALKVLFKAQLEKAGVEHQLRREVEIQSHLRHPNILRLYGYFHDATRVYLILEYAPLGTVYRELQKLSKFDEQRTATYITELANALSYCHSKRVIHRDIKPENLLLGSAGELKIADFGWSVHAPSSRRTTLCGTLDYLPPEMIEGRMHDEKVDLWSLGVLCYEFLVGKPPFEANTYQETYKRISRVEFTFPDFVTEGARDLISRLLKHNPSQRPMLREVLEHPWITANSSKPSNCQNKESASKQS
Description: Off-target activity on Aurora-A kinase. As to conditions: in contrast to leflunomide and teriflunomide.

The conditions of data set [5]: human, in vivo.
Data set [6] concerns SARS-CoV-2 MUC-IMB-1. Nature of the data set: microbe, parasite or virus in culture. The data set is classed as cell-based. The conditions noted are these: Severe acute respiratory syndrome coronavirus 2, Vero 76.
Data set [7] concerns SARS-CoV-2 MUC-IMB-1. Description: microbe, parasite or virus in culture. The data set is classed as cell-based. As to conditions: Severe acute respiratory syndrome coronavirus 2, Caco-2.
Data set [8] is described as follows: in vitro. As to conditions: human.
Data set [9] can be described thus: Cytotoxicity on fibroblasts.
Data set [10] concerns SARS-CoV-2. Type of data set: cell-based.
The nature of data set [11]: Cytotoxicity in uninfected Vero 76 cells (neutral red). As to conditions: African green monkey, Vero 76, day 5, neutral red, read-out: CC50: 50% cytotoxic concentration of compound without virus added. The data set is classed as cell-based.
Data set [12] has as its system Lassa fever Arena virus. The conditions noted are these: Plaque reduction, virus protein expression; A549 and Vero models; cited from earlier work.
The subject of data set [13] is HIV-191US005 (CCR5-tropic, Subtype B). The conditions noted are these: cited from earlier work.
Data set [14] deals with SARS-CoV-2. Type of data set: cell-based. As to conditions: CaCo-2 supernatants on Vero E6 monolayers, treatment setting.
The conditions of data set [15]: human, in vivo. This is another data set of the same source.
The test system of data set [16] is SARS-CoV-2 USA_WA1/2020. Description: microbe, parasite or virus in culture. Type of data set: cell-based. The conditions noted are these: Severe acute respiratory syndrome coronavirus 2, Vero 76.
Data set [17] can be described thus: Cytotoxicity on HepG2 cells. As to conditions: human.
Data set [18] has as its system Vero 76. Nature of the data set: Cytotoxicity in Vero 76 cells (Table 4). The conditions noted are these: Vero 76, 3 days post infection.
The nature of data set [19]: Cytotoxicity in Vero 76 cells (Table 4). The conditions noted are these: African green monkey.
Data set [20] concerns HCV sub genomic replicon of genotype 1b. As to conditions: cited from earlier work.
For data set [21], the system named is SARS-CoV-2 infection (COVID-19).
Data set [22] concerns SARS-CoV-2 MUC-IMB-1. Description: microbe, parasite or virus in culture. The data set is classed as cell-based. The conditions noted are these: Severe acute respiratory syndrome coronavirus 2, Vero.
Data set [23] in a line: in vitro. As to conditions: African green monkey.
Data set [24] concerns hyperactivated immune cells. Description: T-cell mediated cytokine production of hyperactivated immune cells. The data set is classed as cell-based.
Data set [25] in a line: in vitro. The conditions noted are these: African green monkey. The source holds these as a separate data set.
The test system of data set [26] is SARS-CoV-2 infection (COVID-19). Nature of the data set: Phase 2 placebo-controlled trial in hospitalized patients with moderate COVID-19. The conditions noted are these: human, in vivo.
In data set [27] the target is mDHODH (Mus musculus, UniProt O35435). Description: mDHODH inhibition, in vitro protein. The data set is classed as biochemical.
Sequence of mDHODH (O35435 whole entry): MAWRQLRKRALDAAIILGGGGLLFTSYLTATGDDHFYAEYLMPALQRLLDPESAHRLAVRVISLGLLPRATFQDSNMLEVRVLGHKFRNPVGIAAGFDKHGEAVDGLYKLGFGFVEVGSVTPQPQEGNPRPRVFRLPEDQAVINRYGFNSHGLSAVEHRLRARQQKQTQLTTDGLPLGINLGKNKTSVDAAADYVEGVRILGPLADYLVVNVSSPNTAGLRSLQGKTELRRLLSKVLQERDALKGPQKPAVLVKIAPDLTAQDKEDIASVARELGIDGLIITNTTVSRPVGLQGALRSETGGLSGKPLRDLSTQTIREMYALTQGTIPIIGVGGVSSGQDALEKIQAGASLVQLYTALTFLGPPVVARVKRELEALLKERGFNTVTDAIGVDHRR
Data set [28] concerns SARS-CoV-2. Description: SARS-CoV-2 CPE inhibition (neutral red) in Vero 76 cells. The data set is classed as cell-based. As to conditions: Severe acute respiratory syndrome coronavirus 2, Vero 76, 120 h, read-out: EC50: 50% effective antiviral concentration.
The nature of data set [29]: Clinical tolerability of repeated daily dosing. Type of data set: in vivo, human. The conditions noted are these: clinical trials.
The conditions of data set [30]: in vivo; cited from earlier work.

In data set [1], `COc1cccc(-c2ccc(NC(=O)C3=C(C(=O)O)CCC3)c(F)c2)c1` [Vidofludimus, 2-((3-fluoro-3′-methoxy-[1,1′-biphenyl]-4-yl)carbamoyl)cyclopent-1-enecarboxylic acid] returned an IC50 of 4.1 µM. Further, the “off-target activity on EGFR” value in data set [2] is “does not hit”. Besides, the “effects on bone marrow” value in data set [3] was “lack detrimental effects on bone marrow”. Besides, in [4], the “off-target activity on Aurora-A kinases” value is on record as “does not hit”. The compound further returned a blood plasma half-life in data set [5] of 30 h.

In the case of `COc1cccc(-c2ccc(NC(=O)C3=C(C(=O)O)CCC3)c(F)c2)c1` [IMU-838, 1-cyclopentene-1-carboxylic acid, 2-(((3-fluoro-3′-methoxy(1,1′-biphenyl)-4-yl)amino)carbonyl)-, calcium salt (2:1)], the EC50 in [6] was 10 µM; in data set [7], 7.5 to 15 µM; in data set [13] (human PBMCs, reverse transcriptase activity and p24, read-out: median effective dose (ED50) HIV) it was roughly 2000 nM; in [20] (Huh7 cells, Luc activity readout, read-out: median ED50 HCV replicon), 4.6 µM; in [22], 6.8 µM; in data set [28] it was 6.1 µM. Also, the results for the EC90 in data set [7] and in data set [16] were 15 to 30 µM and 6.2 ± 1.9 µM, respectively. The values for the CC50 in data set [8], in [23] and in data set [25] were greater than 60 µM, 88 µM and greater than 100 µM, respectively. In data set [8], this compound gave a CC90 greater than 60 µM. Moreover, the IC50 in [9] was greater than 30 µM; in [12] it was 2800 nM; in data set [13] (RT (reverse transcriptase)), 2200 nM; in data set [13] (p24), 2000 nM; in data set [17], greater than 50 µM; in data set [20] (Replicon, luciferase), 4.6 µM. This compound also had an IC50 in [27] of 10 µM. Also, the figures for the Virus titer in data set [10] (IMU-838 1 μM alone), in data set [10] (IMU-838 5 μM alone) and in data set [10] (IMU-838 10 μM alone) were 5.7 CCID50/ml, 5.7 CCID50/ml and 4.5 CCID50/ml, respectively. In addition, the “reduction of virus titer” value in [10] (all other concentrations (5, 1 μM), alone) is on record as “did not reduce virus titer”. Besides, the CC50 at 5 days in data set [11] stood at 7.9 µM. The “reduction of viral plaques” value in data set [14] is given as 58 fold. Further, the “plasma levels achieved in the blood of treated patients” value in data set [15] fell in the range of 10 to 30 µM. In [18], the “drug concentrations with no cytotoxicity observed” value is listed as “up to 100 μM”. This compound returned a CC90 at 3 days in data set [19] greater than 100 µM. In addition, in data set [21] (IMU-838 treated patients), the “COVID-19 related adverse events with increased intensity” value is 7.1%. Moreover, in data set [21] (blood), the “reduction of C-reactive protein (CRP) vs placebo” value was “more effective reduction”. The “proportion of patients reaching clinical recovery” value was found to be 18.5% in [21] (day 7, FAS, 2×22.5 mg + standard-of-care) and 71.3% in data set [21] (day 28, FAS). The “proportion of patients reaching clinical improvement (as assessed by the investigators)” value is listed as 42.7% in data set [21] (day 14, FAS) and 90.9% in [21] (day 28, FAS). Besides, the “anti-viral effect by viral titers” value in data set [21] (day 14 and day 28) is given as “anti-viral effect of IMU-838 on SARS-CoV-2 was observed”. For the same compound, the “patients reaching WHO score improvement by two points” value in data set [21] (elderly patients (65 years or older), day 14, mFAS) turned out to be 36.4%. The “acceleration of 75% probability to reach clinical improvement (centrally calculated) vs placebo” value in [21] (human, in vivo) is listed as 2.9 days. The “acceleration of 75% probability to reach clinical improvement (investigator assessment) vs placebo” value in [21] (human, in vivo) is 3.8 days and 4.8 days. The “reduction of D-dimer vs placebo” value in data set [21] (human, in vivo) is listed as “more effective reduction”. In addition, the “shortening of third patient quartile for duration of hospitalization vs placebo” value in [21] (human, in vivo) worked out at 3.4 days. Besides, the “time to clinical improvement vs placebo” value in data set [21] (mFAS) is listed as “shorter”. Besides, in [21] (within the first 8 days after onset of symptoms, mFAS), the “clinical improvement (centrally calculated) when used early” value is given as “observed to be better”. Also, the “T-cell mediated cytokine production” value in data set [24] is listed as “able to block”. Besides, the “hematological effects of COVID19” value in data set [26] is on record as “did not intensify”. Moreover, the “rate of infections and infestations and rate of liver events vs placebo” value in data set [26] was “did not increase”. Besides, the “rate of serious adverse events and adverse events leading to treatment discontinuation vs placebo” value in data set [26] is on record as “not increased”. Moreover, the “tolerated repeated daily dosing” value in data set [29] was “up to 50 mg”.

`Cc1oncc1C(=O)Nc1ccc(C(F)(F)F)cc1` [leflunomide]: in data set [30], the blood plasma half-life was 16 to 19 days and the “dosing time to achieve therapeutic trough levels” value is “up to 2 months”.

Turning to `CCC(CC)COC(=O)[C@H](C)N[P@](=O)(OC[C@H]1O[C@@](C#N)(c2ccc3c(N)ncnn23)[C@H](O)[C@@H]1O)Oc1ccccc1` [Remdesivir, remdesivir, reference compound], the Virus titer in data set [10] (remdesivir 1 μM alone) is on record as 5.0 CCID50/ml; in [10] (remdesivir 5 μM alone), 1.7 CCID50/ml; in data set [10] (remdesivir 10 μM alone) it was less than 0.67 CCID50/ml.
